Test results from patent US20050065203A1, “Method of reducing type 2 diabetes in high risk patients” (priority 2001, published 2005).
Where two headings read alike, the source gives them in different places.

Key:
[1] = system: patients without known diabetes but with vascular disease; conditions: study participants without known diabetes at randomization (N Engl J. Med. 2000); cited from earlier work
[2] = system: people at high risk, with and without a diagnosis of diabetes; conditions: cited from earlier work
[3] = system: patients without known diabetes but with vascular disease; test: Heart Outcomes Prevention Evaluation (HOPE) trial: new diagnosis of diabetes; assay type: in vivo, human; conditions: for New Diabetes With Glycated Hemoglobulin ≧ 110%, ULN, RR (85%) CI) / New Diabetes With Oral Agents or Insulin, RR (85%) CI) / New Diabetes With Oral Agents or insulin and Glycated Hemoglobulin ≧ 110%, ULN, RR (85%) CI) / New Diabetes, RR (85%) CI): vs placebo
Procedure: The design of the Heart Outcomes Prevention Evaluation (HOPE) trial has been described in detail in previous publications. Briefly, individuals who were 55 years or older with no evidence of left ventricular dysfunction or heart failure and who had evidence of vascular disease or who had diabetes and one other risk factor were eligible as long as they had no indication or contraindication to receiving an ACE-inhibitor. The study was conducted in 26 hospitals in 19 countries from 1994 to 1999. All patients provided written informed consent.
Of 10576 eligible patients who participated in a run-in period during which they received 2.5 mg ramipril once daily for 1 week followed by matching placebo for 10 to 14 days, 1035 (9.8%) were excluded from randomization (3.2% for side effects, 3.7% for lack of consent). […] In the following it is primarily foccuessed on the latter group of patients. Of these patients, 5720 were randomized to receive up to 10 mg of ramipril once per day or equivalent placebo. One hundred sixty-seven patients who were randomized to receive a low dose (2.5 mg/day) of ramipril as part of the Study to Evaluate Carotid Ultrasound changes with Ramipril and Vitamin E (SECURE). Substudy results are not included. All randomized patients were also randomized to receive 400 IU of Vitamin E or placebo.
Follow-up visits occurred at 1 month and 6 months after randomization and then every 6 months (mean follow-up of 4.5 years). At each visit, it was documented whether the diagnosis of diabetes had been made since the last visit.
The primary outcome of this analysis is a new diagnosis of diabetes recorded on the basis of self-report. […] Hemoglobin A1c (HbA1c) levels and medications used among those diagnosed as having diabetes were also recorded. The HbA1c levels; were determined locally. Values higher than 110% of the upper limit of normal for each laboratory were considered to be biochemical confirmation of diabetes.
Survival curves utilizing the Kaplan Meier and log-rank procedures were used to describe and compare the results in the 2 treatment groups. Because of the factorial design, all analyses were stratified for randomization to vitamin E or placebo. Subgroup analyses were conducted using tests of interaction in the Cox regression model.
Design, Setting and Participants: The randomized, controlled Heart Outcomes Prevention Evaluation trial of 5720 patients older than 55 years without known diabetes but with vascular disease who were followed up for a mean of 4.5 years. The study included 267 hospitals in 19 countries and was conducted between 1994 and 1999.
Intervention: Patients were randomly assigned to receive ramipril, up to 10 mg/d (n=2837), or placebo (n=2883).
Main Outcome Measure: Diagnosis of diabetes determined from self-report at follow-up visits every 6 months, compared between the 2 groups.

[4] = patients with diabetes in HOPE, serial annual recordings, first 2 years; cited from earlier work
[5] = SECURE study, P=0.03, cited from earlier work
[6] = ramipril up to 10 mg/d (n=2837), mean follow-up 4.5 years
[7] = subgroup Body mass index >27.7 Kg/m^2
[8] = subgroup Without microalbuminuria

Molecule: CCOC(=O)[C@H](CCc1ccccc1)N[C@@H](C)C(=O)N1[C@H](C(=O)O)C[C@@H]2CCC[C@@H]21 [ramipril]
- development of diabetes [1]: reduced
- myocardial infarction, strokes, death, and the development of diabetic nephropathy [2]: reduces
- New Diabetes With Glycated Hemoglobulin ≧ 110%, ULN, No. of patients ([3]; No new MA or ON): 42
- New Diabetes With Glycated Hemoglobulin ≧ 110%, ULN, proportion of patients (in parentheses) ([3]; No new MA or ON): 1.7
- New Diabetes With Oral Agents or Insulin, No. of patients ([3]; No new MA or ON): 45
- New Diabetes With Oral Agents or Insulin, proportion of patients (in parentheses) ([3]; No new MA or ON): 1.8
- New Diabetes With Oral Agents or insulin and Glycated Hemoglobulin ≧ 110%, ULN, No. of patients ([3]; No new MA or ON): 30
- New Diabetes With Oral Agents or insulin and Glycated Hemoglobulin ≧ 110%, ULN, proportion of patients (in parentheses) ([3]; No new MA or ON): 1.2
- New Diabetes, No. of patients ([3]; No new MA or ON): 82
- New Diabetes, proportion of patients (in parentheses) ([3]; No new MA or ON): 3.3
- New Diabetes With Glycated Hemoglobulin ≧ 110%, ULN, RR (85%) CI) ([3]; No new MA or ON): 0.66 (0.48-0.98)
- New Diabetes With Oral Agents or Insulin, RR (85%) CI) ([3]; No new MA or ON): 0.56 (0.39-0.81)
- New Diabetes With Oral Agents or insulin and Glycated Hemoglobulin ≧ 110%, ULN, RR (85%) CI) ([3]; No new MA or ON): 0.60 (0.38-0.94)
- New Diabetes, RR (85%) CI) ([3]; No new MA or ON): 0.67 (0.51-0.89)
- New Diabetes With Glycated Hemoglobulin ≧ 110%, ULN, No. of patients ([3]; No primary event): 45
- New Diabetes With Glycated Hemoglobulin ≧ 110%, ULN, proportion of patients (in parentheses) ([3]; No primary event): 1.8
- New Diabetes With Oral Agents or Insulin, No. of patients ([3]; No primary event): 54
- New Diabetes With Oral Agents or Insulin, proportion of patients (in parentheses) ([3]; No primary event): 2.2
- New Diabetes With Oral Agents or insulin and Glycated Hemoglobulin ≧ 110%, ULN, No. of patients ([3]; No primary event): 32
- New Diabetes With Oral Agents or insulin and Glycated Hemoglobulin ≧ 110%, ULN, proportion of patients (in parentheses) ([3]; No primary event): 1.3
- New Diabetes, No. of patients ([3]; No primary event): 93
- New Diabetes, proportion of patients (in parentheses) ([3]; No primary event): 3.8
- New Diabetes With Oral Agents or Insulin, RR (85%) CI) ([3]; No primary event): 0.58 (0.42-0.82)
- New Diabetes With Oral Agents or insulin and Glycated Hemoglobulin ≧ 110%, ULN, RR (85%) CI) ([3]; No primary event): 0.51 (0.33-0.78)
- New Diabetes, RR (85%) CI) ([3]; No primary event): 0.69 (0.53-0.91)
- New Diabetes With Glycated Hemoglobulin ≧ 110%, ULN, No. of patients ([3]; With new MA or ON): 10
- New Diabetes With Glycated Hemoglobulin ≧ 110%, ULN, proportion of patients (in parentheses) ([3]; With new MA or ON): 2.8
- New Diabetes With Oral Agents or insulin and Glycated Hemoglobulin ≧ 110%, ULN, No. of patients ([3]; With new MA or ON): 6
- New Diabetes With Oral Agents or insulin and Glycated Hemoglobulin ≧ 110%, ULN, proportion of patients (in parentheses) ([3]; With new MA or ON): 1.7
- New Diabetes, No. of patients ([3]; With new MA or ON): 20
- New Diabetes, proportion of patients (in parentheses) ([3]; With new MA or ON): 5.8
- New Diabetes With Glycated Hemoglobulin ≧ 110%, ULN, RR (85%) CI) ([3]; With new MA or ON): 0.47 (0.23-0.98)
- New Diabetes With Oral Agents or insulin and Glycated Hemoglobulin ≧ 110%, ULN, RR (85%) CI) ([3]; With new MA or ON): 0.32 (0.13-0.79)
- New Diabetes, RR (85%) CI) ([3]; With new MA or ON): 0.65 (0.38-1.12)
- New Diabetes With Oral Agents or Insulin, No. of patients ([3]; With new NA or ON): 14
- New Diabetes With Oral Agents or Insulin, proportion of patients (in parentheses) ([3]; With new NA or ON): 3.9
- New Diabetes With Oral Agents or Insulin, RR (85%) CI) ([3]; With new NA or ON): 0.61 (0.32-1.16)
- New Diabetes With Glycated Hemoglobulin ≧ 110%, ULN, No. of patients ([3]; With primary event): 7
- New Diabetes With Glycated Hemoglobulin ≧ 110%, ULN, proportion of patients (in parentheses) ([3]; With primary event): 1.9
- New Diabetes With Oral Agents or Insulin, No. of patients ([3]; With primary event): 5
- New Diabetes With Oral Agents or Insulin, proportion of patients (in parentheses) ([3]; With primary event): 1.3
- New Diabetes With Oral Agents or insulin and Glycated Hemoglobulin ≧ 110%, ULN, No. of patients ([3]; With primary event): 4
- New Diabetes With Oral Agents or insulin and Glycated Hemoglobulin ≧ 110%, ULN, proportion of patients (in parentheses) ([3]; With primary event): 1.1
- New Diabetes, No. of patients ([3]; With primary event): 9
- New Diabetes, proportion of patients (in parentheses) ([3]; With primary event): 2.4
- New Diabetes With Glycated Hemoglobulin ≧ 110%, ULN, RR (85%) CI) ([3]; With primary event): 0.59 (0.24-1.43)
- New Diabetes With Oral Agents or Insulin, RR (85%) CI) ([3]; With primary event): 0.42 (0.15-1.14)
- New Diabetes With Oral Agents or insulin and Glycated Hemoglobulin ≧ 110%, ULN, RR (85%) CI) ([3]; With primary event): 0.54 (0.17-1.72)
- New Diabetes, RR (85%) CI) ([3]; With primary event): 0.48 (0.21-0.98)
- patients diagnosed to have diabetes and glycated hemoglobin of 110% or more above upper limit of normal, % ([3]; ramipril group): 1.8%
- patients with new diabetes meeting all criteria, % ([3]; ramipril group): 1.3%
- patients with new diabetes receiving an oral glucose lowering agent or insulin, % ([3]; ramipril group): 2.1%
- individuals who reported a new diagnosis of diabetes, % [3, 6]: 3.6%
- individuals who reported a new diagnosis of diabetes, No. [3, 6]: 102 and One hundred and two
- relative risk of diabetes diagnosis with glycated hemoglobin of 110% or more of ULN ([3]; ramipril vs placebo): 0.60
- relative risk of new diabetes meeting all criteria ([3]; ramipril vs placebo): 0.51
- relative risk of new diabetes with oral glucose lowering agent or insulin ([3]; ramipril vs placebo): 0.56
- relative risk of new diagnosis of diabetes ([3]; ramipril vs placebo): 0.66
- No. With Diabetes ([3]; subgroup): 39
- (%) With Diabetes [3, 7]: (5.8) %
- No. With Diabetes [3, 7]: 63
- (%) With Diabetes ([3]; subgroup Body mass index ≦7.7 Kg/m^2): (2.2) %
- (%) With Diabetes ([3]; subgroup Not taking diuretics): (3.4) %
- No. With Diabetes ([3]; subgroup Not taking diuretics): 84
- (%) With Diabetes ([3]; subgroup Not taking β-blocker): (3.3) %
- No. With Diabetes ([3]; subgroup Not taking β-blocker): 50
- (%) With Diabetes ([3]; subgroup Taking diuretics): (5.0) %
- No. With Diabetes ([3]; subgroup Taking diuretics): 18
- (%) With Diabetes ([3]; subgroup Taking β-blocker): (4.0) %
- No. With Diabetes ([3]; subgroup Taking β-blocker): 52
- (%) With Diabetes ([3]; subgroup Waist-hip ratio >0.93): (4.4) %
- No. With Diabetes ([3]; subgroup Waist-hip ratio >0.93): 63
- (%) With Diabetes ([3]; subgroup Waist-hip ratio ≦0.93): (2.8) %
- No. With Diabetes ([3]; subgroup Waist-hip ratio ≦0.93): 39
- (%) With Diabetes ([3]; subgroup With hypertension): (4.2) %
- No. With Diabetes ([3]; subgroup With hypertension): 49
- (%) With Diabetes ([3]; subgroup With microalbuminuria): (4.2) %
- No. With Diabetes ([3]; subgroup With microalbuminuria): 17
- (%) With Diabetes ([3]; subgroup Without hypertension): (3.2) %
- No. With Diabetes ([3]; subgroup Without hypertension): 53
- (%) With Diabetes [3, 8]: (3.5) %
- No. With Diabetes [3, 8]: 85
- relative risk for diabetes ([3]; subgroup who never took diuretics or β-blockers during the study, ramipril vs placebo): 0.62
- reduction in HbA10 levels, absolute difference [4]: 0.2%
- increase in fasting glucose ([5]; placebo 0.41 mmols): 0.25 mmols
- increase in fasting glucose ([5]; placebo 15.8 mg/dL): 9.6 mg/dL

Molecule: Vitamin E
- effect on diabetes ([3]; 400 IU Vitamin E vs placebo): did not differ
